Reference: patent US7807678B2, “Peptidomimetics of biologically active metallopeptides” (Palatin Technologies, Inc., priority 2001, dated 2010)
Like-named read-outs stand apart in the source and are kept apart here. Non-standard residues stand in square brackets, D forms with d. Residues, ends and D or L forms follow the SMILES beside them. *: point of attachment. Hyp = O=C(O)[C@@H]1C[C@@H](O)CN1; Nle = CCCC[C@H](N)C(=O)O; NH(CH2)3NH2 = NCCCN*; Bn = c1ccc(C*)cc1

What was measured:
[1] = target: T1, MC1-R (B-16 mouse melanoma cells) (Mus musculus, UniProt Q01727); experiment: Competitive inhibition binding assay, 125I-NDP-α-MSH, MC1-R; conditions: 1 μM compound; inhibition of 125I-NDP-α-MSH binding; mean of triplicates; results less than 0% reported as 0%
T1 construct: B-16 mouse melanoma cells (containing MC1-R); endogenous in cells; host or cells: B-16 mouse melanoma cells
Procedure, shortened: (§1)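 Membranes from hMC3-R, hMC4-R or hMC5-R cells, or B-16 mouse melanoma cells (MC1-R), were incubated 90 min at room temperature with 0.4 nM 125I-NDP-α-MSH in HEPES pH 7.2 with Mg2+/Ca2+/K+, and test compound generally at 1 μM. Filter-bound radioactivity was gamma counted. Specific binding was defined with 1 μM α-MSH; triplicate means.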

[2] = target: T1, MC1-R (B-16 mouse melanoma cells); experiment: cAMP assay for agonist/antagonist status, MC1-R; assay type: cell-based
Protocol: (§2) The Ki (nM) of certain peptidomimetics were determined, as was the agonist/antagonist status with respect to MC4-R, Functional evaluation of compounds at melanocortin receptors was performed by measuring the accumulation of intracellular cAMP in HEK-293 cells expressing MC3-R, MC4-R or MC5-R, and in B-16 mouse melanoma cells (containing MC1-R). Antagonistic activity was determined by measuring the inhibition of α-MSH-induced cAMP levels following exposure to the compounds. Cells, suspended in Earle's Balanced Salt Solution containing 10 mM HEPES, pH 7.5, 5 mM MgCl2, 1 mM glutamine, 0.1% albumin and 0.6 mM 3-isobutyl-1-methyl-xanthine, a phosphodiesterase inhibitor, were plated in 96 well plates at a density of 0.5×10^5 cells per well. Cells were incubated with the test compounds in the presence or absence of α-MSH for 1 hour at 37° C. cAMP levels were measured by EIA (Amersham) in the cell lysates. Data analysis and EC50 values were determined using nonlinear regression analysis with Prism Graph-Pad software.

[3] = target: T2, MC4-R (HEK-293 cells) (Homo sapiens, UniProt P32245); experiment: cAMP assay for agonist/antagonist status, MC4-R; assay type: cell-based
T2 construct: expressed in transfected cells; host or cells: HEK-293
Protocol: as §2

[4] = target: T3, MC5-R (HEK-293 cells) (Homo sapiens, UniProt P33032); experiment: cAMP assay for agonist/antagonist status, MC5-R; assay type: cell-based
T3 construct: expressed in transfected cells; host or cells: HEK-293
Protocol: as §2

[5] = target: MC3-R (Homo sapiens, UniProt P41968); experiment: Competitive inhibition binding assay, 125I-NDP-α-MSH, MC3-R; set-up: expressed in transfected cells; conditions: 1 μM compound; inhibition of 125I-NDP-α-MSH binding; mean of triplicates; results less than 0% reported as 0%
Procedure, shortened: as §1

[6] = target: MC4-R (Homo sapiens, UniProt P32245); experiment: Competitive inhibition binding assay, 125I-NDP-α-MSH, MC4-R; set-up: expressed in transfected cells; conditions: 1 μM compound; inhibition of 125I-NDP-α-MSH binding; mean of triplicates; results less than 0% reported as 0%
Procedure, shortened: as §1

[7] = target: MC5-R (Homo sapiens, UniProt P33032); experiment: Competitive inhibition binding assay, 125I-NDP-α-MSH, MC5-R; set-up: expressed in transfected cells; conditions: 1 μM compound; inhibition of 125I-NDP-α-MSH binding; mean of triplicates; results less than 0% reported as 0%
Procedure, shortened: as §1

T1 sequence (Q01727 whole entry): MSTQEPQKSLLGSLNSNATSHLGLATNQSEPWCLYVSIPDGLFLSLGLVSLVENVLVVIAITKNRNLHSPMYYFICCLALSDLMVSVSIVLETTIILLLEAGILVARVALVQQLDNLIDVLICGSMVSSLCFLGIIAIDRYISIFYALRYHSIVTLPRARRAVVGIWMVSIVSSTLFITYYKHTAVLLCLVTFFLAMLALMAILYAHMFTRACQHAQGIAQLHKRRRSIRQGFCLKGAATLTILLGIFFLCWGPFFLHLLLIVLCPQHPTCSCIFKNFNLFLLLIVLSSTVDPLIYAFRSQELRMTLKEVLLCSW
Chain of MC3-R (P41968 whole entry): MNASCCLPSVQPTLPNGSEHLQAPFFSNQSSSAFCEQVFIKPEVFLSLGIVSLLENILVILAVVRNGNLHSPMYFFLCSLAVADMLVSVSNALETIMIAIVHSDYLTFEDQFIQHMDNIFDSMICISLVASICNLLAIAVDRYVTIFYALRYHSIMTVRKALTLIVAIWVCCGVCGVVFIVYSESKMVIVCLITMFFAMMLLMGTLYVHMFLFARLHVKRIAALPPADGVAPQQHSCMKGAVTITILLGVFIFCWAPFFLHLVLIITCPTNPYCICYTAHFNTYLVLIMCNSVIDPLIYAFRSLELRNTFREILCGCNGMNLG
T3 sequence (P33032 whole entry): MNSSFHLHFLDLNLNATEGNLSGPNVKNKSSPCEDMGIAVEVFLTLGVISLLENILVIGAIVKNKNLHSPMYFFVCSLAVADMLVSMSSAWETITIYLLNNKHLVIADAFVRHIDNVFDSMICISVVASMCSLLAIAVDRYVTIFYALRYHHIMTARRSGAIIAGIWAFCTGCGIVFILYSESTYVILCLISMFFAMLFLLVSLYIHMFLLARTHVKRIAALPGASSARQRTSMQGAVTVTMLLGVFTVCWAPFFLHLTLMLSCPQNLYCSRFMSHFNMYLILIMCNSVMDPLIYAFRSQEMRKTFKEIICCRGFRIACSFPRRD
Chain of MC5-R (P33032 whole entry): as above
Chain of MC4-R (P32245 whole entry): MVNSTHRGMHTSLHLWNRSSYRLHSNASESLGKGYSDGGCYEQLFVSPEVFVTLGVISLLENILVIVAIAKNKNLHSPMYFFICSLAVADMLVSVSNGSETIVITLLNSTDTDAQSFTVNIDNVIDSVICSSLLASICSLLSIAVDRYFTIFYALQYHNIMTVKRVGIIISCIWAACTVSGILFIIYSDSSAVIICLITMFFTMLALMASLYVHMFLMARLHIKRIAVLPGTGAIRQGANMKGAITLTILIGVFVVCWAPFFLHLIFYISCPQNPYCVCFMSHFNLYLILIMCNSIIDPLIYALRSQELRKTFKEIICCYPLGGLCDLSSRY
T2 sequence (P32245 whole entry): as above

Row | Structure (SMILES) | Inhibition at 1 μM MC1-R [1] [%] | agonist/antagonist status as to MC1-R [2] | agonist/antagonist status as to MC4-R [3] | agonist/antagonist status as to MC5-R [4] | Inhibition at 1 μM MC3-R [5] [%] | Inhibition at 1 μM MC4-R [6] [%] | Inhibition at 1 μM MC5-R [7] [%] | agonist/antagonist status as to MC1-R ([2]; listed as Compound 1)
1 | NCCCC[C@H]1C(=O)N(CCc2ccc3ccccc3c2)CCN1C(=O)[C@@H](Cc1ccc(Cl)cc1Cl)NC(=O)[C@@H]1Cc2ccccc2CN1 [Example 23] | 63 | agonist | agonist | agonist | 62 | 100 | 80 | –
2 | CCCC[C@H](NC(C)=O)C(=O)N[C@@H](C)C(=O)N[C@@H](Cc1cnc[nH]1)C(=O)N[C@H](Cc1ccccc1)C(=O)N1C[C@H](OCc2ccccc2)C[C@H]1C(=O)NCCCN [Example 133] (Ac-[Nle]AH[dF][Hyp](Bn)-{NH(CH2)3NH2}) | 91 | agonist | – | – | 13 | 8 | 25 | full agonistic activity
3 | N=C(N)NCCC[C@H]1C(=O)N(CCc2ccc3ccccc3c2)CCN1C(=O)[C@H](N)Cc1ccc(Cl)cc1Cl [Example 51] | 22 | antagonist | agonist | agonist | 47 | 95 | 35 | –
4 | NCCC[C@H]1C(=O)N(CCc2ccc3ccccc3c2)CCN1C(=O)[C@@H](Cc1ccc(Cl)cc1Cl)NC(=O)[C@@H](N)COCc1ccccc1 [Example 52] | 36 | agonist | agonist | agonist | 25 | 94 | 63 | –
5 | NCCCC[C@H]1C(=O)N(CCc2ccc3ccccc3c2)CCN1C(=O)[C@@H](Cc1ccc(Cl)cc1Cl)NC(=O)c1ccc(Oc2ccccc2)cc1 [Example 37] | 35 | antagonist | antagonist | agonist | 51 | 99 | 51 | –
6 | N=C(N)NCCC[C@H]1C(=O)N2C(CC[C@@H]2COc2ccc3ccccc3c2)N1C(=O)[C@@H](Cc1ccc(Cl)cc1Cl)NC(=O)[C@@H](N)COCc1ccccc1 (stereo partly shown) [Example 114] | 53 | agonist | agonist | agonist | 77 | 100 | 94 | –
7 | NCCCC[C@H]1C(=O)N(CCc2ccc3ccccc3c2)CCN1C(=O)[C@@H](Cc1ccc(Cl)cc1Cl)NC(=O)CCc1ccccc1 [Example 36] | 72 | agonist | antagonist | agonist | 22 | 92 | 34 | –
8 | NCCCC[C@H]1C(=O)N(CCc2ccc3ccccc3c2)CCN1C(=O)[C@@H](Cc1ccc(Cl)cc1Cl)NCc1ccc(-c2ccccc2)cc1 [Example 39] | 0 | antagonist | antagonist | agonist | 4 | 85 | 9 | –
9 | NCCCC[C@H]1C(=O)N(CCc2ccc3ccccc3c2)CCN1C(=O)[C@@H](Cc1ccc(Cl)cc1Cl)NCc1ccc2ccccc2c1 [Example 41] | 4 | antagonist | antagonist | agonist | 4 | 84 | 2 | –
10 | NCCCC[C@H]1C(=O)N(CCc2ccc3ccccc3c2)CCN1C(=O)[C@@H](Cc1ccc(Cl)cc1Cl)NC(=O)[C@@H](N)COCc1ccccc1 [Example 22] | 40 | agonist | agonist | agonist | 47 | 98 | 76 | –
11 | C[C@@H](OCc1ccccc1)[C@H](N)C(=O)N[C@H](Cc1ccc(Cl)cc1Cl)C(=O)N1CCN(CCc2ccc3ccccc3c2)C(=O)[C@@H]1CCCCN [Example 24] | 30 | agonist | agonist | agonist | 34 | 99 | 78 | –
12 | NCCCC[C@H]1C(=O)N(CCc2ccc3ccccc3c2)CCN1C(=O)[C@@H](Cc1ccc(Cl)cc1Cl)NC(=O)C/C=C/c1ccccc1 [Example 33] | 14 | antagonist | antagonist | agonist | 25 | 91 | 61 | –
13 | NCCCC[C@H]1C(=O)N(CCc2ccc3ccccc3c2)CCN1C(=O)[C@H](N)Cc1ccc(Cl)cc1Cl [Example 35] | 9 | – | – | – | 3 | 62 | 4 | –
14 | Cc1ccc(CCN2CCN(C(=O)[C@H](N)Cc3ccc(Cl)cc3)[C@@H](CCCNC(=N)N)C2=O)cc1 [Example 127] | 9 | – | – | – | 9 | 49 | 17 | –
15 | NC(=O)CC[C@H]1C(=O)N(CCc2ccc3ccccc3c2)CCN1C(=O)[C@H](N)Cc1ccc(Cl)cc1Cl [Example 50] | 0 | – | – | – | 0 | 0 | 0 | –
16 | NCCCNC(=O)[C@@H]1C[C@@H](OCc2ccccc2)CN1C(=O)[C@@H](Cc1ccccc1)NC(=O)[C@H](N)Cc1cccc2ccccc12 [Example 166] | 0 | – | – | – | 13 | 8 | 0 | –
17 | NCCCNC(=O)[C@@H]1C[C@@H](OCc2ccccc2)CN1C(=O)[C@@H](Cc1ccccc1)NC(=O)[C@H](N)C(c1ccccc1)c1ccccc1 [Example 173] | 7 | – | – | – | 13 | 7 | 0 | –
18 | N=C(N)NCCC[C@H]1C(=O)N(CCc2c[nH]c3ccccc23)CCN1C(=O)[C@@H](Cc1ccccc1Cl)NC(=O)[C@@H](N)COCc1ccccc1 [Example 20] | 87 | – | – | – | 40 | 98 | 71 | –
19 | CC(=O)NCCCC[C@H]1C(=O)N(CCc2ccc3ccccc3c2)CCN1C(=O)[C@H](N)Cc1ccc(Cl)cc1Cl [Example 65] | 17 | – | – | – | 3 | 26 | 0 | –
20 | NCCCNC(=O)[C@@H]1C[C@@H](OCc2ccccc2)CN1C(=O)[C@@H](Cc1ccccc1)NC(=O)C1(N)CCCC1 [Example 161] | 3 | – | – | – | 23 | 10 | 0 | –
21 | NCCCC[C@H]1C(=O)N2C(CC[C@@H]2COc2ccc3ccccc3c2)N1C(=O)[C@@H](Cc1ccccc1Cl)NC(=O)[C@@H]1CC[C@H](c2ccccc2)N1 (stereo partly shown) [Example 85] | 4 | – | – | – | 0 | 44 | 13 | –
22 | N=C(N)NCC[C@H]1C(=O)N(CCc2ccc3ccccc3c2)CCN1C(=O)[C@H](N)Cc1ccc(Cl)cc1Cl [Example 56] | 21 | – | – | – | 13 | 81 | 24 | –
23 | CCCNC(=N)NCCCC1C(=O)N(CCc2ccc3ccccc3c2)CCN1C(=O)C(N)Cc1ccc(Cl)cc1Cl (stereo not shown) [Example 74] | 13 | – | – | – | 34 | 88 | 26 | –
